Results from publication PMC7663597, “Structure–Activity Relationship of Aloperine Derivatives as New Anti–Liver Fibrogenic Agents” (Molecules, 2020).
Where a name gives a salt, the structure may show the parent alone. Marks after values point to notes of the source that are not given here.

Legend:
COL1A1 promotor = COL1A1 promotor luciferase reporter gene assay in TGF-β1-treated LX-2 cells; assay type: cell-based, human; conditions: for inhibition at 40 µM / inhibition at 80 µM: Homo sapiens, LX-2, 24 h; for inhibition at 40 µM: 24 h with TGF-β1, read-out: Inhibition Percentage 40 μM (inhibition rate of COL1A1 promotor's activity); for inhibition at 80 µM: 24 h with TGF-β1, read-out: Inhibition Percentage 80 μM (inhibition rate of COL1A1 promotor's activity)
Procedure: A single luciferase reporter gene detection model was applied to evaluate the inhibitory effects of all target compounds on the expression of COL1A1 promotor in human hepatic stellate LX-2 cells at the concentrations of 40 and 80 μM, taking EGCG as the positive control. The LX-2 cell lines were transfected with COL1A1 promotor luciferase plasmid pGL4.17-COL1A1P for 24 h, then simultaneously treated with TGF-β1 and a tested compound for 24 h.
Cells were maintained on Dulbecco’s Modified Eagle’s medium (DMEM), laid on 96-well plate. DMEM medium was supplemented with 10% fetal bovine serum (FBS) at 37 °C humidified atmosphere with 5% CO2. Furthermore, serum-free culture was required until the cells were confluent at 90−95%. 24 h later the cells were treated with a tested compound (40 and 80 μM) for 24 h. The COL1A1 promotor activity was detected by the Bright-Glo luciferase assay system. Alternatively, to test the acute effects of compound on luciferase activity, 24 h later the cells were lysed and the lysate was treated with a tested compound (80 μM) for 2 h, then the luciferase was detected by the Bright-Glo luciferase assay system (Promega, Madison, WI, USA).

With `O=C(CN1CCCC2=C[C@H]3C[C@H](CN4CCCC[C@H]34)[C@@H]21)NC1CCOCC1` (as salt: hydrochloride) [4b, 12N-N′-(Tetrahydro-2H-pyran-4-yl)carbamoylmethyl aloperine hydrochloride] as the compound, how does the melting point read?
The melting point was 199 to 201 °C.

For `CCNC(=O)CN1CCCC2=C[C@H]3C[C@H](CN4CCCC[C@H]34)[C@@H]21` [4a, 12N-N′-Ethylcarbamoylmethyl aloperine], which melting point is on record?
The melting point was 69 to 71 °C.

And the inhibition at 40 µM (COL1A1 promotor)?
The inhibition at 40 µM was 7.1 ± 25.6%.

What about the inhibition at 80 µM (COL1A1 promotor) of the same compound?
Its inhibition at 80 µM is 33.1 ± 1.6%.

What does the source list for `O=C(CN1CCCC2=C[C@H]3C[C@H](CN4CCCC[C@H]34)[C@@H]21)NC1CCOCC1` [4b, 12N-N′-(Tetrahydro-2H-pyran-4-yl)carbamoylmethyl aloperine hydrochloride]?
inhibition at 40 µM (COL1A1 promotor): 19 ± 3.8%; inhibition at 80 µM (COL1A1 promotor): 29.8 ± 10%

Which melting point does the source give for `O=C(CN1CCCC2=C[C@H]3C[C@H](CN4CCCC[C@H]34)[C@@H]21)NC12CC3CC(CC(C3)C1)C2` [4c, 12N-N′-Adamantylcarbamoylmethyl aloperine] here?
The melting point was 176 to 178 °C.

What about the inhibition at 40 µM (COL1A1 promotor) of the same compound?
The inhibition at 40 µM was 23.7 ± 7.7%.

What about the inhibition at 80 µM (COL1A1 promotor) of the same compound?
The inhibition at 80 µM was 39.2 ± 1.2%.

For `O=C(CN1CCCC2=C[C@H]3C[C@H](CN4CCCC[C@H]34)[C@@H]21)Nc1ccccc1` [4d, 12N-N′-Phenylcarbamoylmethyl aloperine], which melting point is on record?
The melting point was 66 to 68 °C.

And the inhibition at 40 µM (COL1A1 promotor)?
The inhibition at 40 µM was 18.6 ± 8.6%.

And the inhibition at 80 µM (COL1A1 promotor)?
Its inhibition at 80 µM is 28.3 ± 2.8%.

Which melting point does the source give for `O=C(CN1CCCC2=C[C@H]3C[C@H](CN4CCCC[C@H]34)[C@@H]21)Nc1ccc(F)cc1` [4e, 12N-N′-(4-Fluorophenyl)carbamoylmethyl aloperine] here?
Its melting point is 119 to 121 °C.

What about the inhibition at 40 µM (COL1A1 promotor) of the same compound?
Its inhibition at 40 µM is 21.4 ± 1.5%.

What about the inhibition at 80 µM (COL1A1 promotor) of the same compound?
The inhibition at 80 µM was 26.5 ± 0.5%.

With `Cc1cccc(NC(=O)CN2CCCC3=C[C@H]4C[C@H](CN5CCCC[C@H]45)[C@@H]32)c1` [4f, 12N-N′-(3-Methylphenyl)carbamoylmethyl aloperine] as the compound, how does the melting point read?
Its melting point is 40 to 42 °C.

What about the inhibition at 40 µM (COL1A1 promotor) of the same compound?
The inhibition at 40 µM was 21.2 ± 0.4%.

And the inhibition at 80 µM (COL1A1 promotor)?
Its inhibition at 80 µM is 33.8 ± 8%.

What does the source list for `O=C(CN1CCCC2=C[C@H]3C[C@H](CN4CCCC[C@H]34)[C@@H]21)Nc1cccc(OC(F)(F)F)c1` [4g, 12N-N′-(m-Trifluoromethoxyphenyl)carbamoylmethyl aloperine]?
melting point: 50 to 52 °C; inhibition at 40 µM (COL1A1 promotor): 67.8 ± 14.9%; inhibition at 80 µM (COL1A1 promotor): 95.5 ± 5.5%

Which melting point does the source give for `COC(=O)c1ccc(C)c(NC(=O)CN2CCCC3=C[C@H]4C[C@H](CN5CCCC[C@H]45)[C@@H]32)c1` [4j, 12N-N′-(2-Methyl-5-methoxycarbonylphenyl)carbamoylmethyl aloperine] here?
The melting point was 75 to 77 °C.

What about the inhibition at 40 µM (COL1A1 promotor) of the same compound?
The inhibition at 40 µM was 3.8 ± 6.1%.

What about the inhibition at 80 µM (COL1A1 promotor) of the same compound?
The inhibition at 80 µM was 32.4 ± 2.7%.

Which melting point does the source give for `Cc1cc(NC(=O)CN2CCCC3=C[C@H]4C[C@H](CN5CCCC[C@H]45)[C@@H]32)cc(C)c1C` [4k, 12N-N′-(3,4,5-Trimethylphenyl)carbamoylmethyl aloperine] here?
Its melting point is 183 to 185 °C.

And the inhibition at 40 µM (COL1A1 promotor)?
The inhibition at 40 µM was 50.1 ± 6.9%.

And the inhibition at 80 µM (COL1A1 promotor)?
Its inhibition at 80 µM is 70.7 ± 1.5%.

With `O=C(CN1CCCC2=C[C@H]3C[C@H](CN4CCCC[C@H]34)[C@@H]21)Nc1cccc2ncccc12` [4l, 12N-N′-(5-Quinolyl)carbamoylmethyl aloperine] as the compound, how does the melting point read?
Its melting point is 74 to 76 °C.

What about the inhibition at 40 µM (COL1A1 promotor) of the same compound?
Its inhibition at 40 µM is 31.5 ± 2.6%.

What about the inhibition at 80 µM (COL1A1 promotor) of the same compound?
The inhibition at 80 µM was 22.4 ± 16.1%.

What does the source list for `CN(C(=O)CN1CCCC2=C[C@H]3C[C@H](CN4CCCC[C@H]34)[C@@H]21)c1ccccc1` [4m]?
melting point: 73 to 75 °C; inhibition at 40 µM (COL1A1 promotor): 19.9 ± 5.2%; inhibition at 80 µM (COL1A1 promotor): 34.6 ± 2.5%

For `O=C(CN1CCCC2=C[C@H]3C[C@H](CN4CCCC[C@H]34)[C@@H]21)N1CCCC1` [4o, 12N-N′-(1-Pyrrolidinyl)carbamoylmethyl aloperine], which melting point is on record?
The melting point was 78 to 80 °C.

What about the inhibition at 40 µM (COL1A1 promotor) of the same compound?
The inhibition at 40 µM was 16.5 ± 9.8%.

And the inhibition at 80 µM (COL1A1 promotor)?
The inhibition at 80 µM was 36.7 ± 9.9%.

With `O=C(O[C@@H]1Cc2c(O)cc(O)cc2O[C@@H]1c1cc(O)c(O)c(O)c1)c1cc(O)c(O)c(O)c1` [EGCG, reference compound] as the compound, how does the “Inhibition Percentage (inhibition rate of COL1A1 promotor's activity)” value (COL1A1 promotor; at the concentration of 25 μM (positive control)) read?
The value was 27.5 ± 7.9^e %.

What does the source list for `C1=C2CCCN[C@H]2[C@@H]2C[C@H]1[C@H]1CCCCN1C2` [compound 1, Aloperine]?
inhibition at 40 µM (COL1A1 promotor): 4.7 ± 3.7%; inhibition at 80 µM (COL1A1 promotor): 2.6 ± 5.2%
